Legend:
Assay type in all cases: in vivo
[1] = tested on: Rice (variety: Nipponbare); assay: Test Example 3: promotion of root growth by hydroponics of rice, 0.1 ppm; conditions: hydroponic solution containing the test compound at 0.1 ppm, average of 4 or 5 individuals
Description: (§1) Test for Evaluating Promotion of Root Growth by Hydroponics of Rice
(§2) Rice (variety: Nipponbare)
A DMSO solution, which contained one of the compounds 2, 6, 7, 16, 20, 33, 34, 36, 37, 38, 40, 41, 43, 44, 45, 46, 47, 48, 50, 51, 52, 53, 54, 55, 56, 61, 64, 67, 68, 71, 72, 73, 74, 75, 76, 79, 80, 81 and 83 of the present invention at a concentration of 1,000 ppm, was added to Hoagland hydroponic solution (Hoagland and Arnon, California Agricultural Experiment Station 1950 Circular 347 pp. 34) of ¼-fold concentration at a volume ratio of 1/10,000. In this manner, hydroponic solutions containing one of the compounds 2, 6, 7, 16, 20, 33, 34, 36, 37, 38, 40, 41, 43, 44, 45, 46, 47, 48, 50, 51, 52, 53, 54, 55, 56, 61, 64, 67, 68, 71, 72, 73, 74, 75, 76, 79, 80, 81 and 83 of the present invention at 0.1 ppm were prepared respectively. As an untreated control plot, a hydroponic solution obtained by adding DMSO to Hoagland hydroponic solution of ¼-fold concentration at a volume ratio of 1/10,000 was used.
Rice seeds were soaked in a 1% aqueous sodium hypochlorite solution for 10 minutes, then soaked in a 70% ethanol solution for surface sterilization, and then washed with distilled water. The sterilized seeds were soaked in a hydroponic solution containing the test compound described above at 0.1 ppm and incubated in a dark place for 3 days at 28° C. to perform treatment for hastening germination.
(§3) Thereafter, 30 ml of hydroponic solution containing the test compound at 0.1 ppm was dispensed in a plastic tube (diameter of 20 mm×height of 113 mm) of which the side was covered with cardboard to block light. A float prepared using a styrene board and vinyl mesh was floated, and the rice seeds that had undergone the treatment for hastening germination were placed on the float on the surface of the hydroponic solution. The seeds were cultivated for 3 days at 26° C., an illuminance of 4,000 lux of the top surface of the tube, a humidity of 50%, and a day length of 16 hours.
The nursery plants of rice obtained after culturing were measured in terms of the length of seminal root by using WinRHIZO system (manufactured by Regent Instruments Inc). For each test plot, an average of the measured values of the seminal root of 4 or 5 individuals was determined.

[2] = tested on: Corn seeds (variety: Pioneer 120 31P41); assay: Test Example 14: growth promotion under low-temperature stress by soil drench treatment of corn; conditions: soil drench 20 ml, low-temperature stress 5 days at 2.5° C., health score 0-5, average of 4 individuals; for change in vivo at 3 ppm: concentration tested 3 ppm
Description: Test for Evaluating Growth Promotion Under Low-Temperature Stress by Soil Drench Treatment of Corn
Corn seeds (variety: Pioneer 120 31P41) were seeded in a culture soil (Aisai) in a plastic pot (φ55 mm×height of 58 mm), and cultivated for 7 days at 20-25° C., an illuminance of about 5,000 lux, and a day length of 16 hours.
A DMSO solution, which contained one of the compounds 1 to 9, 16, 17, 20, 23, 24, 28 to 32, 34, 45, 48, 50, 82 and 85 of the present invention at a concentration of 1,000-fold concentration of each test concentration, was prepared, and then diluted with distilled water to obtain each test solution. After that, 20 ml of the obtained test solution was used to perform soil drench treatment on the foot of the test plants. The test plants were cultivated for 2 days under the conditions of a temperature of 27° C., a humidity of 40-80%, an illuminance of about 5,000 lux, and a day length of 16 hours. This was used as a test plot treated with the compound. A plot having undergone the soil drench treatment with 20 ml of a 0.1% DMSO aqueous solution instead of the above DMSO solution containing the compound was used as an untreated control plot.
The plants having undergone the soil drench treatment were cultivated for 5 days under the conditions of a temperature of 2.5° C., a humidity of 40-80%, an illuminance of about 5,000 lux, and a day length of 16 hours, thereby exposing to low-temperature stress. After the exposure to the low-temperature stress, the plants were cultivated for 4 days under the conditions of a temperature of 27° C., a humidity of 40-80%, an illuminance of about 5,000 lux, and a day length of 16 hours.
After the cultivation, the health of each plant was scored according to the following evaluation index.
5: 4 or more leaves in which ⅔ or more of the area was healthy
4: 3 leaves in which ⅔ or more of the area was healthy
3: 2 leaves in which ⅔ or more of the area was healthy
2: 1 leaf in which ⅔ or more of the area was healthy
1: No leaf in which ⅔ or more of the area was healthy
An average of the scores of the health of 4 individuals was determined.

[3] = tested on: Nicotiana benthamiana; assay: Test Example 4: growth promotion under low-temperature stress by hydroponics of Nicotiana benthamiana, 10 ppm; conditions: 10 ppm in medium, low-temperature stress 7 days at 1.5±1.0° C., green leaf area 3 days later, equation (1)
Description: Test for Evaluating Growth Promotion Under Low-Temperature Stress by Hydroponics of Nicotiana benthamiana
A DMSO solution, which contained one of the compounds 1, 8, 9, 13, 18, 19, 22, 23, 29, 32, 33, 34, 39, 40, 41, 43, 44, 51, 53, 54, 55, 56, 58, 60, 62, 63, 64, 65, 67, 69, 71, 73, 74, 75, 77, 79, 82, 83 and 86 of the present invention at a concentration of 10,000 ppm, was prepared. The DMSO solution of the compound of the present invention was added at a volume ratio of 1/1,000 to the Murashige•Scoog medium of a ½-fold concentration (a medium containing 2.3 g of mixed salts for the Murashige•Scoog medium (manufactured by Wako Pure Chemical Industries, Ltd.), 200 mg of Myo-inositol (manufactured by Sigma-Aldrich Co. LLC.), 2 mg of nicotinic acid (manufactured by Wako Pure Chemical Industries, Ltd.), 2 mg of pyridoxine hydrochloride (manufactured by Wako Pure Chemical Industries, Ltd.), 20 mg of thiamine hydrochloride (manufactured by Wako Pure Chemical Industries, Ltd.), 20 g of sucrose (manufactured by Wako Pure Chemical Industries, Ltd.), and 1 g of MES (manufactured by DOJINDO LABORATORIES) per 1 L of water and having pH adjusted to 5.8), thereby preparing a medium containing the compound of the present invention at a concentration of 10 ppm.
Seeds of Nicotiana benthamiana were seeded in the 5 μL of the medium and cultured overnight at 22° C. Thereafter, 45 μL of the medium containing the compound of the present invention at a concentration of 10 ppm was added thereto, and the seeds are cultivated for 7 days at 22° C., an illuminance of 4,000 lux, and a day length of 16 hours, and the nursery plants raised from the Nicotiana benthamiana were treated with the compound. Moreover, instead of the above medium, a test plot, which was obtained by performing the same treatment by using a medium prepared by adding DMSO to the Murashige•Scoog medium of ½-fold concentration at a volume ratio of 1/1,000, was used as a control plot not treated with the compound.
The nursery plants of the Nicotiana benthamiana treated with the compound were subjected to low-temperature treatment by being cultivated for 7 days at 1.5±1.0° C., an illuminance of 2,000 lux, and a day length of 16 hours.
The nursery plants of the Nicotiana benthamiana having undergone the low-temperature stress treatment were cultivated for 3 days at 22° C., an illuminance of 4,000 lux, and a day length of 16 hours. Thereafter, the area of green leaf was quantified by Scanalyzer HTS (manufactured by LemnaTec GmbH). Moreover, the value of the control plot not treated with the compound that had not yet been subjected to the low-temperature stress treatment was measured in the same manner. A value of a relative leaf area was calculated based on the following equation (1), and if the value of a relative leaf area was 5 or greater, the compound was evaluated to have a mitigating effect. As a result of the evaluation, it was confirmed that when the plant was treated with one of the compounds 1, 8, 9, 13, 18, 19, 22, 23, 29, 32, 33, 34, 39, 40, 41, 43, 44, 51, 53, 54, 55, 56, 58, 60, 62, 63, 64, 65, 67, 69, 71, 73, 74, 75, 77, 79, 82, 83 and 86 of the present invention at 10 ppm, the value of a relative leaf area was 5 or greater, compared to the area of green leaf of the control plot not treated with compound. Accordingly, it was confirmed that the treatment using the compound of the present invention brings about a growth promotion effect.
Relative leaf area=100*(a green area of a plot treated with the compound of the present invention−a green area of a control plot not treated with the compound of the present invention)/(a green area of a control plot not treated with the compound of the present invention that has not yet been subjected to low-temperature stress treatment−a green area of a control plot not treated with the compound of the present invention) Equation (1): […]

[4] = tested on: Rice (variety: Nipponbare); assay: Test Example 1: promotion of root growth by hydroponics of rice, 10 ppm; conditions: Oryza sativa, hydroponic solution containing the test compound at 10 ppm, average of 4 or 5 individuals, read-out: Relative value of length of seminal root (%-untreated control plot)
Method in brief: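 Surface-sterilised seeds germinated 3 days in the dark at 28° C in hydroponic solution with compound at 10 ppm, then grown 3 days hydroponically with compound at 10 ppm (26° C, 4,000 lux, 16 h day, 50% humidity). Seminal root length measured by image analysis, averaged over 4 or 5 plants per plot.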

[5] = tested on: Rice (variety: Nipponbare); assay: Test Example 2: promotion of root growth by hydroponics of rice, 1 ppm; conditions: hydroponic solution containing the test compound at 1 ppm, average of 4 or 5 individuals
Description: as §1, §2
A DMSO solution, which contained one of the compounds 1, 3, 11, 12, 14, 15, 17, 21, 28, 30, 33, 34, 35, 36, 37, 38, 40, 41, 43, 44, 45, 46, 47, 49, 50, 51, 52, 53, 54, 55, 56, 61, 62, 63, 65, 67, 68, 69, 70, 73, 74, 75, 76, 77, 80, 82, 83, 85 and 86 of the present invention at a concentration of 10,000 ppm, was added to Hoagland hydroponic solution (Hoagland and Arnon, California Agricultural Experiment Station 1950 Circular 347 pp. 34) of ¼-fold concentration at a volume ratio of 1/10,000. In this manner, hydroponic solutions containing one of the compounds 1, 3, 11, 12, 14, 15, 17, 21, 28, 30, 33, 34, 35, 36, 37, 38, 40, 41, 43, 44, 45, 46, 47, 49, 50, 51, 52, 53, 54, 55, 56, 61, 62, 63, 65, 67, 68, 69, 70, 73, 74, 75, 76, 77, 80, 82, 83, 85 and 86 of the present invention at 1 ppm were prepared respectively. As an untreated control plot, a hydroponic solution obtained by adding DMSO to Hoagland hydroponic solution of ¼-fold concentration at a volume ratio of 1/10,000 was used. Rice seeds were soaked in a 1% aqueous sodium hypochlorite solution for 10 minutes, then soaked in a 70% ethanol solution for surface sterilization, and then washed with distilled water. The sterilized seeds were soaked in a hydroponic solution containing the test compound described above at 1 ppm and incubated in a dark place for 3 days at 28° C. to perform treatment for hastening germination.
as §3, with “1” for “0.1”
The nursery plants of rice obtained after cultivation were measured in terms of the length of seminal root by using WinRHIZO system (manufactured by Regent Instruments Inc). For each test plot, an average of the measured values of the seminal root of 4 or 5 individuals was determined.

[6] = Zea mays, 120 h, read-out: Relative value of score (%- untreated control plot)

| Compound | Relative value of score (%- untreated control plot) ([2]; concentration tested 10 ppm) [%] | relative leaf area at 10 ppm [3] [%] | change in vivo at 10 ppm [4] [%] | change in vivo at 3 ppm [2, 6] [%] | Relative value of length of seminal root (%-untreated control plot) [5] [%] | other results |
| --- | --- | --- | --- | --- | --- | --- |
| COC(=O)c1cc2c(C(F)(F)F)cccc2[nH]1 [Compound 6] | >5 | – | – | – | – | Relative value of length of seminal root (%-untreated control plot) [1]: >5% |
| COC(=O)c1nc2cc(C(F)(F)F)ccc2s1 [Compound 29, methyl 5-trifluoromethylbenzothiazole-2-carboxylate] | – | ≥ 5 | > 5 | > 5 | – | – |
| COC(=O)c1cc2ccc(C(F)(F)F)cc2o1 [Compound 48] | – | – | – | – | – | change in vivo at 0.1 ppm ([1]; Oryza sativa, read-out: Relative value of length of seminal root (%-untreated control plot)): > 5%; change in vivo at 10 ppm ([2]; Zea mays, 120 h, concentration tested 10 ppm, read-out: Relative value of score (%- untreated control plot)): > 5% |
| COC(=O)c1cc2cc(C(F)(F)F)ccc2[nH]1 [Compound 8, methyl 5-trifluoromethylindole-2-carboxylate] | – | ≥ 5 | > 5 | > 5 | – | – |
| O=C(O)c1nc2cccnc2[nH]1 [Compound 28] | >5 | – | – | – | >5 | – |
| COC(=O)c1nc2ccccc2s1 [Compound 30] | >5 | – | – | – | >5 | – |

From patent publication US20150289512A1, “METHOD FOR PROMOTING PLANT GROWTH” (SUMITOMO CHEMICAL COMPANY, LIMITED, priority 2012, published 2015)
